This is an account of results in ChEMBL document CHEMBL1157588, “Searching for multi-target antipsychotics: Discovery of orally active heterocyclic N-phenylpiperazine ligands of D2-like and 5-HT1A receptors” (Bioorg Med Chem, 2010).

Format in all cases: organism-based
What all share (parameters): dose 4 mg/kg, route oral

The test system of data set [1] is Mus musculus. The experiment in a line: Toxicity in CF1 mouse assessed as induction of catalepsy by measuring time spent on elevated wood bar at 4 mg/kg, po after 60 mins (reference value: 2.7 +/- 2.9 sec). As to conditions: in vivo, 1 h.
Data set [2] has as its system Mus musculus. The experiment in a line: Toxicity in CF1 mouse assessed as induction of catalepsy by measuring time spent on elevated wood bar at 4 mg/kg, po after 90 mins (reference value: 2.4 +/- 2.6 sec). As to conditions: in vivo, 1.5 h.
In data set [3] the test system is Mus musculus. As to the kind of experiment: Toxicity in CF1 mouse assessed as induction of catalepsy by measuring time spent on elevated wood bar at 4 mg/kg, po after 30 mins (reference value: 1.8 +/- 1.1 sec). As to conditions: in vivo, 0.5 h.
The subject of data set [4] is Mus musculus. As to the kind of experiment: Toxicity in CF1 mouse assessed as induction of motor impairment by measuring permanence time at 4 mg/kg, po by rotarod test (reference value: 241.4 +/- 18.0 sec). As to conditions: in vivo, 0.005 h. Background: Falling from the rotarod earlier than controls is read as motor impairment.

`O=C(CCCN1CCC(O)(c2ccc(Cl)cc2)CC1)c1ccc(F)cc1` [HALOPERIDOL]: the Time in the data set with Mus musculus [1] was determined as 89.7 s; in the data set with Mus musculus [2], 105 s; with Mus musculus [3] it was 54.4 s; with Mus musculus [4], 73.5 s.
